In patent publication US9486394B2, “Pharmaceutical foam” (STIEFEL WEST COAST, LLC, priority 2003, dated 2016):

Legend:
[1] = Stability with different can linings (Example 2); type: physicochemical; conditions: 4 weeks
Procedure: Low buffer levels at a pH of 4.5 or 6.5, including unbuffered pH 4.5, were tested in cans with either epoxy-phenolic, polyamide-imide (PAM), or Micoflex linings. Some of the PAM-lined cans were scratched internally to check for corrosion on bare aluminum. Cans were stored at 4° C., 40° C., and 50° C. for 4 weeks and then examined.

[2] = Stability, citrate buffer pH, epoxy-phenolic lined cans (Example 1); conditions: 1 month
Procedure: In this study, a citrate buffer solution was used to adjust the pH of the mixture to pH 4.5, pH 5.5, and pH 6.5 using four different buffer concentrations (i.e., 0, 0.1, 0.3, 0.5%) and two alternative emollients or humectants, i.e., propylene glycol and glycerin. The containers were stored at 50° C. for 1 month and then examined.

Question: What does the source list for `CCC[C@@H]1C[C@@H](C(=O)N[C@@H]([C@H]2O[C@H](SC)[C@H](OP(=O)(O)O)[C@@H](O)[C@H]2O)[C@H](C)Cl)N(C)C1` [clindamycin phosphate]?
Answer: clindamycin phosphate stability in PAM-lined container ([1]; FIG. 4): unexpectedly high; degradation of clindamycin phosphate ([1]; 40° C.): moderate degradation; degradation of clindamycin phosphate ([1]; 50° C.): relatively severe degradation; clindamycin phosphate degradation at higher buffer levels ([2]; citrate buffer 0.5%, 0.3% vs 0.1%, 0.0%, 50° C.): higher amount of clindamycin phosphate degradation; stability of clindamycin phosphate as a function of pH ([2]; pH 4.5, 5.5, 6.5, 50° C., FIG. 3): more stable at a lower pH level
